From the kinase profiling compilation of Christmann-Franck et al. (2016)

What was measured:
Experiment in all cases: KINOMEscan competition binding
Settings in all cases: compound 10.0 µM
CDKL3 (human) = CDKL3 (human) (UniProt Q8IVW4)
MST4 (human) = MST4 (human) (UniProt Q9P289)
[1] = test system: EGFR (human), P00533 [T790M/L858R]
MAP3K1 (human) = MAP3K1 (human) (UniProt Q13233)
PIP4K2B (human) = PIP4K2B (human) (UniProt P78356)
IRAK3 (human) = IRAK3 (human) (UniProt Q9Y616)
ITK (human) = ITK (human) (UniProt Q08881)
CSNK1A1L (human) = CSNK1A1L (human) (UniProt Q8N752)
RPS6KA3 KD1 (human) = RPS6KA3 KD1 (human) (UniProt P51812)
MELK (human) = MELK (human) (UniProt Q14680)
RIPK1 (human) = RIPK1 (human) (UniProt Q13546)
MST1R (human) = MST1R (human) (UniProt Q04912)
MAK (human) = MAK (human) (UniProt P20794)
MAPK4 (human) = MAPK4 (human) (UniProt P31152)
RPS6KA1 KD2 (human) = RPS6KA1 KD2 (human) (UniProt Q15418)
MAP3K3 (human) = MAP3K3 (human) (UniProt Q99759)
PIK3CD (human) = PIK3CD (human) (UniProt O00329)
EPHA3 (human) = EPHA3 (human) (UniProt P29320)
ACVR2B (human) = ACVR2B (human) (UniProt Q13705)
PAK2 (human) = PAK2 (human) (UniProt Q13177)
MAP3K5 (human) = MAP3K5 (human) (UniProt Q99683)
NIM1 (human) = NIM1 (human) (UniProt Q8IY84)
CSF1R (human) = CSF1R (human) (UniProt P07333)
PIP5K1A (human) = PIP5K1A (human) (UniProt Q99755)
PRKG2 (human) = PRKG2 (human) (UniProt Q13237)
PRKACB (human) = PRKACB (human) (UniProt P22694)
CAMK2G (human) = CAMK2G (human) (UniProt Q13555)
FGFR1 (human) = FGFR1 (human) (UniProt P11362)
BTK (human) = BTK (human) (UniProt Q06187)
CAMK4 (human) = CAMK4 (human) (UniProt Q16566)
CDK9 (human) = CDK9 (human) (UniProt P50750)
PRKAA2 (human) = PRKAA2 (human) (UniProt P54646)
MAP2K4 (human) = MAP2K4 (human) (UniProt P45985)
IKBKE (human) = IKBKE (human) (UniProt Q14164)
CDK19 (human) = CDK19 (human) (UniProt Q9BWU1)
MAPK9 (human) = MAPK9 (human) (UniProt P45984)
GSK3A (human) = GSK3A (human) (UniProt P49840)
[2] = test system: KIT (human), P10721 [V559D/V654A]
FYN (human) = FYN (human) (UniProt P06241)
VRK2 (human) = VRK2 (human) (UniProt Q86Y07)

Sequence of MAPK9 (human) (P45984 whole entry, looked up): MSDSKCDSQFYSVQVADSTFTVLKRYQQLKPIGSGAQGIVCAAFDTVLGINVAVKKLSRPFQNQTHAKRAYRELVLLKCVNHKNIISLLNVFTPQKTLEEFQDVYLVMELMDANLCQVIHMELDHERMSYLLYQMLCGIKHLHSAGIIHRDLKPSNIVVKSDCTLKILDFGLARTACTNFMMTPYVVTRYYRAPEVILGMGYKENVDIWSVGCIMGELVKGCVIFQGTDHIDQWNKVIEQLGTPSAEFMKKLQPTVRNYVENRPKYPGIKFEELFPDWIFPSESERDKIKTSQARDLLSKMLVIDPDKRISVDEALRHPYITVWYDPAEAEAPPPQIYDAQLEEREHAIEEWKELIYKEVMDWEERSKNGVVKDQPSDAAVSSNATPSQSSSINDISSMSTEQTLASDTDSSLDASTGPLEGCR
Sequence of PAK2 (human) (Q13177 whole entry, looked up): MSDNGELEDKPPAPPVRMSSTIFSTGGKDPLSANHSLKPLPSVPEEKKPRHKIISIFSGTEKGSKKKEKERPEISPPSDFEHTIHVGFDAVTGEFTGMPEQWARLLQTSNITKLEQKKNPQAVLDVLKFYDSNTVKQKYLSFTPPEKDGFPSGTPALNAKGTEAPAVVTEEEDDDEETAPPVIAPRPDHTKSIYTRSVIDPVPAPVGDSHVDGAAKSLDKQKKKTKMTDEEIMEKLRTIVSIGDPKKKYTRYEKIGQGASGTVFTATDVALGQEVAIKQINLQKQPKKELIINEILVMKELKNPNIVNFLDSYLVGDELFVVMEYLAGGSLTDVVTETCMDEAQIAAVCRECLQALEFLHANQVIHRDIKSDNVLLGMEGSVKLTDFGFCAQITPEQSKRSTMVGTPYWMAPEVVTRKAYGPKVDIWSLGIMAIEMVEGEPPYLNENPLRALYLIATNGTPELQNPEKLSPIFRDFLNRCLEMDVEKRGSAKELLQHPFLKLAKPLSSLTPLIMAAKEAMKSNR
Sequence of RPS6KA1 KD2 (human) (Q15418 whole entry, looked up): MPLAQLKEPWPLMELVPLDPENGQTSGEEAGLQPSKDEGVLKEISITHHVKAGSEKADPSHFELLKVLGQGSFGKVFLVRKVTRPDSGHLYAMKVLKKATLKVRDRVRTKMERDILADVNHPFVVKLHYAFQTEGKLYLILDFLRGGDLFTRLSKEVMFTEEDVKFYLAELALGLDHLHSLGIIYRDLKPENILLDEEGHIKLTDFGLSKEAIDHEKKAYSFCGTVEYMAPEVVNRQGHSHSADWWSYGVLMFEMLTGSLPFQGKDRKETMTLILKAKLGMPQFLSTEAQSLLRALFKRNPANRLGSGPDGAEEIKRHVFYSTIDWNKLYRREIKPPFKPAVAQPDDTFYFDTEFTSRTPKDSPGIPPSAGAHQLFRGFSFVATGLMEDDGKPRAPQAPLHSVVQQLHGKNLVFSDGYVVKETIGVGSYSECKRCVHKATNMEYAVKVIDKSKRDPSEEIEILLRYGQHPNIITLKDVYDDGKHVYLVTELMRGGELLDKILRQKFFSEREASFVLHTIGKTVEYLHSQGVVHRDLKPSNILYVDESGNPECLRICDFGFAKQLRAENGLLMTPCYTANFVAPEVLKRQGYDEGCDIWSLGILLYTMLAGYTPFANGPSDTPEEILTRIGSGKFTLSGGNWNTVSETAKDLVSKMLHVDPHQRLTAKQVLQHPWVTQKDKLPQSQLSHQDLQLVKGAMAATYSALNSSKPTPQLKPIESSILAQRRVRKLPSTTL
Sequence of MAP2K4 (human) (P45985 whole entry, looked up): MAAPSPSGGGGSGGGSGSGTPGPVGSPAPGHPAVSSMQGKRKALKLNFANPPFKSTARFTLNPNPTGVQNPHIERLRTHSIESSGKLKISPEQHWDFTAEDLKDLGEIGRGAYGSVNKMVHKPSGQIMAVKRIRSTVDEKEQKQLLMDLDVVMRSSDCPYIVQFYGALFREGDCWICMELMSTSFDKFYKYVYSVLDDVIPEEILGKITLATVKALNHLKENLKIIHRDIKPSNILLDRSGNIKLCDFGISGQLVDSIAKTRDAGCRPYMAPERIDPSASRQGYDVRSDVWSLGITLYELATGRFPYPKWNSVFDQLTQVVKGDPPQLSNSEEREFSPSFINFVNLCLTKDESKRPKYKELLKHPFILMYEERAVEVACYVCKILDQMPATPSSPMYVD
Sequence of IKBKE (human) (Q14164 whole entry, looked up): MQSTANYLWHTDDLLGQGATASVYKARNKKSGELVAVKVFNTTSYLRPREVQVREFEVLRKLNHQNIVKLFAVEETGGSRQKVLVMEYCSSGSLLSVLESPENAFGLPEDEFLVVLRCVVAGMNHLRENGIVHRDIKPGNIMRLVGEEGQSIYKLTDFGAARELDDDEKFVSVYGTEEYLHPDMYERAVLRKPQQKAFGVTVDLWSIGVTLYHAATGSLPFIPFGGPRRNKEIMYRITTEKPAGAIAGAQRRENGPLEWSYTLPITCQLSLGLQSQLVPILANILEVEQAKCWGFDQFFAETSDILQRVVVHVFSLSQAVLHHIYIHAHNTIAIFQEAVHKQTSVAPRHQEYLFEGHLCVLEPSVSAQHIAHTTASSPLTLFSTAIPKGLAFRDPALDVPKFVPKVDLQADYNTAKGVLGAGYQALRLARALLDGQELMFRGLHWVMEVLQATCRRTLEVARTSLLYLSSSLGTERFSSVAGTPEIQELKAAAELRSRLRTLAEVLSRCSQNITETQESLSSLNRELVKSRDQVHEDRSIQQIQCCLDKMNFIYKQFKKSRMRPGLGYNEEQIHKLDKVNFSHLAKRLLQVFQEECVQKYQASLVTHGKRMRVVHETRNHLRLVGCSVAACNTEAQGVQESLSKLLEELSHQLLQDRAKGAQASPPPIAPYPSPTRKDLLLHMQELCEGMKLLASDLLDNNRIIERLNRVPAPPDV
Sequence of CDKL3 (human) (Q8IVW4 whole entry, looked up): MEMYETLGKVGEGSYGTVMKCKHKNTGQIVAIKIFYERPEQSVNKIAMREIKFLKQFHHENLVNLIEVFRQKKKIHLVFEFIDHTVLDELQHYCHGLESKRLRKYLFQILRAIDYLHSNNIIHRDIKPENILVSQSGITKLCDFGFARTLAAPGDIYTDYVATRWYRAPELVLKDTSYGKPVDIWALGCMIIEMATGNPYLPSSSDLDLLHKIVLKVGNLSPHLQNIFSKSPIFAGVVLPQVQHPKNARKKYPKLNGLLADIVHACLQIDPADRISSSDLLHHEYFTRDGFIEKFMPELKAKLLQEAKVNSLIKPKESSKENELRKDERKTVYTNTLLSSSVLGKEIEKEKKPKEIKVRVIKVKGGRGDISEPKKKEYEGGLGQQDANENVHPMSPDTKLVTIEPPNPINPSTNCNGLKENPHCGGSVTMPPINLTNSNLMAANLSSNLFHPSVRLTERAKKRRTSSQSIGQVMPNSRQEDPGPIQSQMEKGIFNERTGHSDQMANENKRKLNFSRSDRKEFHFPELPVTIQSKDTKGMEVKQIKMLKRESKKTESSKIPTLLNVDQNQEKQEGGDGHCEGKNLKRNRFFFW
Sequence of PIP4K2B (human) (P78356 whole entry, looked up): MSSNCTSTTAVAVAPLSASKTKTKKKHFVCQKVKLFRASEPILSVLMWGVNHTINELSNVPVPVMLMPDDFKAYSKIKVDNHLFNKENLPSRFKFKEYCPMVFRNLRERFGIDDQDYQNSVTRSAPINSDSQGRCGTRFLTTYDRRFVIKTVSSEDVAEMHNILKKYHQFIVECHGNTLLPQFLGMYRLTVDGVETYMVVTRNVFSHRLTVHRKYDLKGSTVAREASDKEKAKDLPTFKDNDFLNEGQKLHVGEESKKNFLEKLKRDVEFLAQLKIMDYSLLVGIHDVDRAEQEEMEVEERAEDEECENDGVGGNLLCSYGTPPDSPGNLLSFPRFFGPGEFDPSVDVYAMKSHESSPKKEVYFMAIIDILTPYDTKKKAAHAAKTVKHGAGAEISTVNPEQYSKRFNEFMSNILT
Sequence of FGFR1 (human) (P11362 whole entry, looked up): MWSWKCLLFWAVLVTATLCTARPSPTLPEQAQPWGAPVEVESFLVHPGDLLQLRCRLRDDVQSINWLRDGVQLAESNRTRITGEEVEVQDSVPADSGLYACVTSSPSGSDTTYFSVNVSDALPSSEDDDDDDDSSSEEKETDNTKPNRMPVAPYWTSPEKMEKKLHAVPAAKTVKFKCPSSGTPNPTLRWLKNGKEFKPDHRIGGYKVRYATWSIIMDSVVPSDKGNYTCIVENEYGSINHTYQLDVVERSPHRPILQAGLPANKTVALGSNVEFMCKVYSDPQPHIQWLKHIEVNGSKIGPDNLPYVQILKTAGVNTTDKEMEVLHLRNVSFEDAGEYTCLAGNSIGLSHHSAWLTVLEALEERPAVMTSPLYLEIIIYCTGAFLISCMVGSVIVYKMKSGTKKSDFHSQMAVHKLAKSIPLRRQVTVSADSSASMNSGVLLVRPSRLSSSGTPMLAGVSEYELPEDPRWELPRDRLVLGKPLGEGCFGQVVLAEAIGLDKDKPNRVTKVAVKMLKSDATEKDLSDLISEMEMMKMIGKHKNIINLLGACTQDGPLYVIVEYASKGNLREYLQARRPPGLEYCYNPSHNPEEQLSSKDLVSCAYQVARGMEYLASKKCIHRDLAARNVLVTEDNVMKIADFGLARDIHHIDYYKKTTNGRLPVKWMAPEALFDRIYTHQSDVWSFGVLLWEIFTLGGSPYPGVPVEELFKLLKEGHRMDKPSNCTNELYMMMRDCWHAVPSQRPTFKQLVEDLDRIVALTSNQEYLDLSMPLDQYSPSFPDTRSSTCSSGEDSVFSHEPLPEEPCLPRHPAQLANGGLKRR
Sequence of CSNK1A1L (human) (Q8N752 whole entry, looked up): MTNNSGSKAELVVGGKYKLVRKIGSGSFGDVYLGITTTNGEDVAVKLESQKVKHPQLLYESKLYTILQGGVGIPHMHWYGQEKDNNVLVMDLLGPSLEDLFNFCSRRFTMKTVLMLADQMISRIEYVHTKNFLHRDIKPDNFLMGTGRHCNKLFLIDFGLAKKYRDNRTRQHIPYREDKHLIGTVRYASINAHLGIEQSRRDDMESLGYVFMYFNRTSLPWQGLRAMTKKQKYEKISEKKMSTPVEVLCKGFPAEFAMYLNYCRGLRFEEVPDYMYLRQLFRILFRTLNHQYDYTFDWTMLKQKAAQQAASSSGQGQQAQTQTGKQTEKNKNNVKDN

Row | Structure (SMILES) | kinase still bound, per cent of control (CDKL3 (human)) [%] | kinase still bound, per cent of control (MST4 (human)) [%] | kinase still bound, per cent of control [1] [%] | kinase still bound, per cent of control (MAP3K1 (human)) [%] | kinase still bound, per cent of control (PIP4K2B (human)) [%] | kinase still bound, per cent of control (IRAK3 (human)) [%] | kinase still bound, per cent of control (ITK (human)) [%] | kinase still bound, per cent of control (CSNK1A1L (human)) [%] | kinase still bound, per cent of control (RPS6KA3 KD1 (human)) [%] | kinase still bound, per cent of control (MELK (human)) [%] | kinase still bound, per cent of control (RIPK1 (human)) [%] | kinase still bound, per cent of control (MST1R (human)) [%] | kinase still bound, per cent of control (MAK (human)) [%] | kinase still bound, per cent of control (MAPK4 (human)) [%] | kinase still bound, per cent of control (RPS6KA1 KD2 (human)) [%] | kinase still bound, per cent of control (MAP3K3 (human)) [%] | kinase still bound, per cent of control (PIK3CD (human)) [%] | kinase still bound, per cent of control (EPHA3 (human)) [%] | kinase still bound, per cent of control (ACVR2B (human)) [%] | kinase still bound, per cent of control (PAK2 (human)) [%] | also measured
1 | CN(C)C/C=C/C(=O)Nc1ccc(C(=O)Nc2cccc(Nc3nccc(-c4cccnc4)n3)c2)cc1 | 20 | 100 | 100 | 100 | 56 | 6.8 | 100 | 100 | 62 | 58 | 34 | 100 | 100 | 19 | 91 | 93 | 91 | 73 | 98 | 76 | kinase still bound, per cent of control (MAP3K5 (human)): 100%; kinase still bound, per cent of control (NIM1 (human)): 94%; kinase still bound, per cent of control (CSF1R (human)): 100%; kinase still bound, per cent of control (PIP5K1A (human)): 34%; kinase still bound, per cent of control (PRKG2 (human)): 76%; kinase still bound, per cent of control (PRKACB (human)): 100%; kinase still bound, per cent of control (CAMK2G (human)): 76%; kinase still bound, per cent of control (FGFR1 (human)): 89%; kinase still bound, per cent of control (BTK (human)): 71%; kinase still bound, per cent of control (CAMK4 (human)): 100%; kinase still bound, per cent of control (CDK9 (human)): 90%; kinase still bound, per cent of control (PRKAA2 (human)): 95%; kinase still bound, per cent of control (MAP2K4 (human)): 9.8%; kinase still bound, per cent of control (IKBKE (human)): 76%; kinase still bound, per cent of control (CDK19 (human)): 100%; kinase still bound, per cent of control (MAPK9 (human)): 2.5%; kinase still bound, per cent of control (GSK3A (human)): 26%; kinase still bound, per cent of control [2]: 56%; kinase still bound, per cent of control (FYN (human)): 100%; kinase still bound, per cent of control (VRK2 (human)): 90%
2 | O=C(Nc1cccc(Nc2ncc(Br)c(NCCc3cnc[nH]3)n2)c1)N1CCCC1 | 75 | 0.4 | 26 | 34 | 0.55 | 0.7 | 4.5 | 32 | 0.5 | 2.2 | 18 | 70 | 100 | 3.2 | 13 | 0.3 | 84 | 21 | 4.9 | 45 | kinase still bound, per cent of control (MAP3K5 (human)): 24%; kinase still bound, per cent of control (NIM1 (human)): 0.05%; kinase still bound, per cent of control (CSF1R (human)): 1.4%; kinase still bound, per cent of control (PIP5K1A (human)): 1%; kinase still bound, per cent of control (PRKG2 (human)): 4.8%; kinase still bound, per cent of control (PRKACB (human)): 1%; kinase still bound, per cent of control (CAMK2G (human)): 52%; kinase still bound, per cent of control (FGFR1 (human)): 0.25%; kinase still bound, per cent of control (BTK (human)): 5.2%; kinase still bound, per cent of control (CAMK4 (human)): 100%; kinase still bound, per cent of control (CDK9 (human)): 66%; kinase still bound, per cent of control (PRKAA2 (human)): 0.5%; kinase still bound, per cent of control (MAP2K4 (human)): 0.3%; kinase still bound, per cent of control (IKBKE (human)): 4.6%; kinase still bound, per cent of control (CDK19 (human)): 100%; kinase still bound, per cent of control (MAPK9 (human)): 0.3%; kinase still bound, per cent of control (GSK3A (human)): 60%; kinase still bound, per cent of control [2]: 15%; kinase still bound, per cent of control (FYN (human)): 8.2%; kinase still bound, per cent of control (VRK2 (human)): 12%
3 | COc1ccc(N(C(=O)Oc2c(C)cccc2C)c2ccnc(Nc3ccc(N4CCN(C)CC4)cc3)n2)c(OC)c1 | 0.1 | 33 | 14 | 32 | 5.4 | 19 | 100 | 100 | 37 | 46 | 63 | 16 | 69 | 100 | 65 | 0.75 | 92 | 9.4 | 1.8 | 58 | kinase still bound, per cent of control (MAP3K5 (human)): 100%; kinase still bound, per cent of control (NIM1 (human)): 100%; kinase still bound, per cent of control (CSF1R (human)): 0.1%; kinase still bound, per cent of control (PIP5K1A (human)): 0.45%; kinase still bound, per cent of control (PRKG2 (human)): 92%; kinase still bound, per cent of control (PRKACB (human)): 2.5%; kinase still bound, per cent of control (CAMK2G (human)): 100%; kinase still bound, per cent of control (FGFR1 (human)): 0.25%; kinase still bound, per cent of control (BTK (human)): 1.3%; kinase still bound, per cent of control (CAMK4 (human)): 100%; kinase still bound, per cent of control (CDK9 (human)): 33%; kinase still bound, per cent of control (PRKAA2 (human)): 7.9%; kinase still bound, per cent of control (MAP2K4 (human)): 100%; kinase still bound, per cent of control (IKBKE (human)): 78%; kinase still bound, per cent of control (CDK19 (human)): 100%; kinase still bound, per cent of control (MAPK9 (human)): 2.6%; kinase still bound, per cent of control (GSK3A (human)): 100%; kinase still bound, per cent of control [2]: 85%; kinase still bound, per cent of control (FYN (human)): 0%; kinase still bound, per cent of control (VRK2 (human)): 100%
